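These data come from cells grown in 96-well plates and exposed to compound for 48 hours at five concentrations. GI50 marks 50% less growth. At the TGI there is no net growth.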
Legend:
Assay in all cases: DTP human tumour cell line panel, 48 h
UO-31 renal = system: UO-31 renal
UACC-62 melanoma = system: UACC-62 melanoma
MALME-3M melanoma = system: MALME-3M melanoma
UACC-257 melanoma = system: UACC-257 melanoma
SW-620 colon = system: SW-620 colon
HCC-2998 colon = system: HCC-2998 colon
A498 renal = system: A498 renal
HCT-15 colon = system: HCT-15 colon

SMILES	GI50 (UO-31 renal) [µM]	TGI (UO-31 renal) [µM]	GI50 (UACC-62 melanoma) [µM]	TGI (UACC-62 melanoma) [µM]	GI50 (MALME-3M melanoma) [µM]	TGI (MALME-3M melanoma) [µM]	GI50 (UACC-257 melanoma) [µM]	TGI (UACC-257 melanoma) [µM]	GI50 (SW-620 colon) [µM]	TGI (SW-620 colon) [µM]	GI50 (HCC-2998 colon) [µM]	TGI (HCC-2998 colon) [µM]	GI50 (A498 renal) [µM]	TGI (A498 renal) [µM]	GI50 (HCT-15 colon) [µM]	TGI (HCT-15 colon) [µM]
Cc1nc(N)sc1C(=O)Nc1cc(C(=O)NCCCN(C)C)n(C)c1	> 100	> 100	> 100	> 100	> 100	> 100	> 100	> 100	> 100	> 100	> 100	> 100	> 100	> 100	> 100	> 100
COc1cc2nc3cc([N+](=O)[O-])ccc3c(NCCCNCC(C)(C)O)c2cc1OC	1.46	5.14	0.214	0.58	0.315	0.872	1.62	3.1	0.301	1.51	0.233	0.62	0.216	1.33	1.3	8.29
O=C(Oc1ccccc1Cl)c1ccccc1Nc1ccnc(C(F)(F)F)c1	9.63	> 57.9	0.165	2.05					0.15	20	2.22	5.26	3.92	17.6	0.219	0.538
O=[N+]([O-])c1ccc2ncccc2c1Cl	5.02	> 100	5.84	20.4	15.2	54.4	7.62	29.3	0.627	16	3.67	14.2	10.8	31.3	3.43	14.4
COc1ccc2c(c1)[n+](=O)c(C(=O)/C=C/c1cc(OC)c(OC)c(OC)c1)c(C)n2[O-]	28	78.6	17.2	37.3	19.1	58.7	34.1	> 100	> 100	> 100	42.9	> 100	16.4	57.5	29.1	> 100
COC1=Nc2ccccc2S(=O)(=O)C=C1		12.5		37.4		6.84	0.671	20.5	0.875	3.46		36.9		33		7.89
CCCCn1sc(=O)n(Cc2ccc(CNC(=O)OCc3ccc4c(Br)cc(Br)c(O)c4n3)cc2)c1=O	1.05	> 100	0.916	> 100	0.831	> 100	> 100	> 100	0.42	> 100	4.25	> 69.8	0.105	0.602	0.468	> 100

Reference: PubChem BioAssay (NCI)
